# Assay results: patent publication US7186863B2, “Sertraline compositions” (TransForm Pharmaceuticals, Inc., priority 2003, dated 2007)
# Structures can show the parent of a compound that is named as a salt.
# Test: Solubility of sertraline salt forms
# Conditions: medium not given; aqueous solubility
row,Compound,Solubility [µg/mL]
1,sertraline besylate [Sertraline besylate salt],300
2,"CN[C@H]1CC[C@@H](c2ccc(Cl)c(Cl)c2)c2ccccc21 [Sertraline lactate Form A, sertraline lactate]",1900
3,"CN[C@H]1CC[C@@H](c2ccc(Cl)c(Cl)c2)c2ccccc21 [sertraline HBr salt, sertraline HBr]",600
4,sertraline mesylate [Sertraline mesylate Form C],4200
